Results from patent publication US20260315436A1, “METHOD OF TREATING DISORDERS WITH SURF1 MALFUNCTION” (Cure Mito Foundation, priority 2023, published 2026).

Assays:
[1] = tested on: GM28010 SURF1 mutant fibroblasts; assay: Seahorse mitochondrial stress test, fibroblast cell line GM28010 (Experiment 2, combinations and single compounds); assay type: cell-based, human; conditions: 48 h
Protocol: (§1) In order to evaluate selected compounds' impact on mitochondrial function in patient-derived fibroblasts compared to controls, three seahorse assays were conducted, Exp. 1: Fibroblast cell line GM28010—single compounds; Exp. 2. Fibroblast cell line GM28010—combination of compounds+ Single compounds; and Exp. 3: Fibroblast cell line GM28012—single compounds. Seahorse XF24 Extracellular Flux Analyzers continuously measure oxygen concentration and proton flux in the cell supernatant over time (Wu et al., 2007). The oxygen concentration and proton flux measurements are converted in OCR and ECAR values. This enables a direct quantification of mitochondrial respiration and glycolysis. The aim of the seahorse assays is to evaluate the impact of selected compounds on mitochondrial function in patient-derived fibroblasts compared to controls. Compounds used in the seahorse assays include posacanazole, sertaconazole, glabridin, zinglibroside (ginsenoside Z R1), AM281, cysteamine bitrartate, PF-06447475, losmapimod, telepravir, miltefosine, incyclinide, poziotinib, and methylene blue.
(§2) • Basal Oxygen Consumption (OCR): This reflects the cellular oxygen usage under basal conditions, encompassing both energy production (ATP turnover) and background oxygen leak from the mitochondria. • Oligomycin Injection: Oligomycin is a compound that inhibits ATP synthase, an enzyme crucial for ATP production within mitochondria. • Oligomycin-resistant Respiration: After oligomycin injection, minimal oxygen consumption persists, representing non-ATP linked oxygen leak from the mitochondria, often termed proton leak. • ATP-linked Respiration: This value is derived by subtracting the oligomycin-resistant respiration from the basal OCR. It signifies the oxygen consumption specifically linked to ATP production through mitochondrial oxidative phosphorylation. • Mitochondrial Bioenergetic Efficiency: This parameter reflects the percentage decrease in oxygen consumption observed after oligomycin injection, indicating the mitochondria's efficiency in utilizing oxygen for ATP generation. • FCCP Injection: FCCP is a chemical that disrupts the link between mitochondrial electron transport and ATP production. • Maximal Respiration: Following FCCP injection, the highest oxygen consumption rate is measured, representing the maximum capacity of the mitochondria to utilize oxygen for respiration. • Spare Respiratory Capacity: This parameter is calculated by subtracting basal respiration from maximal respiration.
GM28010 is a primary human fibroblast cell line that was obtained from patients with SURF1 Leigh syndrome. It was purchased from the Coriell Cell Repositories (Camden, N.J., repository number GM28010).
GM00038 is a primary human fibroblast cell line purchased from the Coriell Cell Repositories (Camden, N.J.; repository number GM00038). GM00038 was used as a healthy control.
(§3) Fibroblasts were grown in glucose according to recommendation. Cells were plated in XF96 plates in culture medium and plated at 10,000 cells/well. The day after plating, cells were treated with compounds. Treatments completed in glucose medium Compounds were tested at for 48 hours. The compounds were incubated at (37 C, 5% CO2) until the day of the experiment.
The fibroblasts were run at passage numbers: GM28010 SURF1 Fibroblasts P5.
The Assay Medium was 10 mM glucose or galactose DMEM supplemented with 2 mM glutamine and 1 mM pyruvate. Injection Ports for basal glucose: Port A: 2 μM oligomycin; Port B: 2.5 μM FCCP; Port C: 4 μM FCCP; and Port D: 2 μM rotenone and antimycin A. The Data were normalized to cell number per well after the run. The Hoechst-stained nuclei were counted with a Operetta High-Content Imager.

shy1Δ knockout mutants = assay: Yeast drug repurposing screen, shy1Δ knockout mutants (haploid/diploid not separated); assay type: cell-based; conditions: FIG. 12, inactive statins; test not named
Text: An aim of the present disclosure is to identify SURF1 Leigh Syndrome drug repurposing clinical candidates using a rapid turnaround, multi-species phenotypic screening approach that starts with the development and phenotypic characterization of genetically personalized yeast strains—“patient avatars”—and culminates in a drug repurposing screen, a process previously published for PMM2-CDG in Lao et al., 2019 Feb 7; 9(2):413423. […] Slow growth can be rescued in a pathway-agnostic high-throughput chemical suppressor screen. As in the case of PMM2-CDG, the SURF1 yeast ortholog, gene identifier SHY1, is essential undergrowth conditions that require functional mitochondria, i.e., respiration. The yeast species Yarrowia lipolytica was used for the screen since it is an obligate aerobe (requires oxygen to grow), contains a fully functional electron transport chain, and has already been prototyped in a drug repurposing screen (Perlstein 2020). A 384-well-plate growth-based assay with appropriate positive and negative controls was designed and optimized for a drug repurposing screen (~5,000 compounds). The drug repurposing screen for mitochondrial diseases involving complex IV deficiency is described herein. A general yeast screening method was discussed in Perlstein, Drug repurposing for mitochondrial diseases using a pharmacological model of complex I deficiency in the yeast Yarrowia lipolytica, bioRxiv, (2020), see https://www.biorxiv.org/content/10.1101/2020.01.08.899666v1.
Yeast cells completely lacking SURF1 are unable to grow in conditions that require their mitochondria to produce energy. Knocking out the SURF1 ortholog in yeast—SHY1—results in loss of the ability of the knockout mutant to grow on a non-fermentable carbon source, e.g., lactate or glycerol, that requires functional mitochondria. A shy1Δ knockout mutant is incapable of growing on YEPG, or yeast media spiked with ethanol and glycerol as the sole non-fermentable carbon sources.
A unique hit signature was identified using the pilot screen of ~2,500 known drugs. A drug repurposing screen was performed. BY4741 and BY4742 are wildtype haploid controls, BY4743 is the wildtype diploid control. PY14 and PY15 are haploid shy1Δ knockout mutants of each yeast mating type. PY16 is the diploid SHY1/shy1Δ heterozygous mutant, which grows just like BY4743. PY17 is the diploid homozygous shy1Δ knockout mutant. FIG. 20.
FIG. 22, FIG. 23, FIG. 24A, FIG. 24B. It is thought that the hits act by stabilizing cytochrome c oxidase.
The discernible red triangles are the hits; the larger the triangles, the more statistically significant the result. […] FIG. 25A and FIG. 25B. Haploid and diploid SURF1 deficient mutants were screened. The positive control is a wildtype (unmutated) yeast strain. […]

[2] = tested on: GM28012 SURF1 fibroblasts; assay: Seahorse mitochondrial stress test, fibroblast cell line GM28012 (Experiment 3, single compounds); assay type: cell-based, human; conditions: 48 h; for ATP-linked respiration / basal respiration: both glucose and galactose
Protocol: as §1, §2
GM28010 primary human fibroblasts obtained from patients with SURF1 Leigh syndrome were purchased from the Coriell Cell Repositories (Camden, N.J.; repository number GM28010).
GM00038 primary human fibroblasts purchased from the Coriell Cell Repositories (Camden, N.J., repository number GM00038) and were used as a healthy control.
as §3, with “plating, the” for “plating,”, “with the” for “with”, “The treatments” for “Treatments”, “and galactose medium. The compounds” for “Compounds”, “experiment. The fibroblasts were run at passage numbers: GM28012 SURF1 Fibroblasts P5.” for “experiment.”
The assay medium was 10 mM glucose or galactose DMEM supplemented with 2 mM glutamine and 1 mM pyruvate. Injection Ports for basal glucose: Port A: 2 μM oligomycin; Port B: 2.5 μM FCCP; Port C: 4 μM FCCP; and Port D: 2 μM rotenone and antimycin A.
The data were normalized to cell number per well after the run. The Hoechst-stained nuclei were counted with a Operetta High-Content Imager.

[3] = combinations at 1 μM losmapimod, 10 μM Ginsenoside Z R1, 10 μM PF-06447475, single compounds 1, 5, 10 μM
[4] = listed as Cysteamine Bitrartate

With `CN(C)c1ccc2nc3ccc(=[N+](C)C)cc-3sc2c1` [Methylene Blue, methylene blue] the “ATP production rate through OXPHOS” value [1, 3] was “dose-dependent decrease in ATP production through OXPHOS”, the “respiration (oxygen consumption rate)” value [1, 3] was “decreased oxygen consumption rates” and the “total ATP production rates” value [1, 3] was “maintain ATP production rates”. The “ATP production through glycolysis” value ([1]; combinations at 1 μM losmapimod, 10 μM Ginsenoside Z R1, single compounds 1, 5, 10 μM) was “increase in ATP production through glycolysis”.

`CC[C@H](C)C(=O)O[C@H]1CCC=C2C=C[C@H](C)[C@H](CC[C@@H]3C[C@@H](O)CC(=O)O3)[C@H]21` [mevastatin] was tested, and the activity of statins (shy1Δ knockout mutants) was “inactive”.

With `CC[C@H](C)C(=O)O[C@H]1C[C@@H](C)C=C2C=C[C@H](C)[C@H](CC[C@@H]3C[C@@H](O)CC(=O)O3)[C@H]21` [lovastatin] the activity of statins (shy1Δ knockout mutants) was “inactive”.

In the case of `CC[C@H](C)C(=O)O[C@H]1C[C@H](O)C=C2C=C[C@H](C)[C@H](CC[C@@H](O)C[C@@H](O)CC(=O)O)[C@H]21` [pravastatin], the activity of statins (shy1Δ knockout mutants) is reported as “inactive”.

`CCC(C)(C)C(=O)O[C@H]1C[C@@H](C)C=C2C=C[C@H](C)[C@H](CC[C@@H]3C[C@@H](O)CC(=O)O3)[C@H]21` [simvastatin] was tested, and the activity of statins (shy1Δ knockout mutants) was “inactive”.

In the case of `NCCS` [cysteamine bitartrate], the “ATP production through OXPHOS” value [2] is reported as “Dose-dependent increase”, the “ATP production through glycolysis” value [2] is reported as “decrease ATP production through glycolysis” and the “total ATP production rate” value [2] is reported as “Dose-dependent increase”. For the same molecule, the ATP-linked respiration [2] was “increased basal respiration and ATP-Linked respiration in a dose-dependent manner”, the basal respiration [2] was “increased basal respiration and ATP-Linked respiration in a dose-dependent manner” and the ATP-linked respiration [2, 4] was “↑basal respiration and ATP-”. For the same molecule, the basal respiration [2, 4] was “↑basal respiration and ATP-”, the glycolysis ([2]; glucose-cultured cells) was “dose-dependent decrease” and the maximal respiration ([2]; glucose-cultured cells) was “dose-dependent decrease”. For the same molecule, the toxicity ([2]; glucose-cultured cells) was “some toxicity”, the “ATP production through glycolysis” value [2, 4] was “conditions. ↓ATP production” and the “respiration (oxygen consumption rate)” value [1, 3] was “did not alter oxygen consumption rates”. The “ATP production rate through glycolysis” value ([1]; higher concentrations) was “decreased”.
